{"source": "patent US20210145830A1", "about": "“MATERIALS AND METHODS FOR TREATING CANCER” (Mayo Foundation for Medical Education and Research, priority 2018, published 2021)", "format_in_all_cases": "cell-based", "key": {"CART19": {"system": "CART19", "assay": "T cell degranulation and intracellular cytokine assays", "protocol": "FIG. 22A-C. In vitro experiment for the combination of CART19 and TP0903. A. CART19 were cocultured at different effector-to-target ratio (E:T) with luciferase-positive JeKo-1. At 48 hours, cell killing was assessed by luminescence. […] The means and SEM are shown (**, p<0.005, *, p<0.05, one-way ANOVA analysis). n.s., not statistically significant. B. CART19 degranulation assay and cytokine production in the presence of TP0903. CART19 were cocultured with JeKo-1 for 4 hours in the presence of TP0903 doses of TP0903 (10-65 nM). […] C. Th2/Th1 T cell subtype analysis during CART19 expansion in the presence pf TP0903. CART19 cells were stimulated with lethally irradiated (120 Gy) JeKo-1 cell lines in the presence of increasing doses of TP0903 (10-30 nM). At the day 3, Th1 and Th2 cells were defined using CD4, CCR6, CCR4 and CXCR3 expression. […] The means and SEM are shown (*, p<0.05, one-way ANOVA analysis). n.s., not statistically significant.\nBriefly, T cells were incubated with target cells at a 1:5 ratio. After staining for CAR expression, antibodies against CD107a, CD28, CD49d and monensin were added at the time of incubation. After 4 hours, cells were harvested and stained for CD3, CD4, and Live Dead staining (Invitrogen). Cells were fixed and permeabilized (FIX & PERM Cell Fixation & Cell Permeabilization Kit, Life Technologies) and intracellular cytokine staining was then performed as indicated in the specific experiments.\nT cells were incubated with target cells at a 1:5 ratio (experiments were done using JEKO cells as well as primary B cells). Antibodies against CD107a, CD28, CD49d and monensin were added at the time of incubation.\nAfter 4 hours, cells were harvested and stained for CD3, CD4, and Live Dead staining (Invitrogen). Cells were fixed and permeabilized (FIX & PERM Cell Fixation & Cell Permeabilization Kit, Life Technologies), and intracellular cytokine staining was then performed. […] The number of CD4 and CD8 cells positively stained for cluster of differentiation 107a (CD107a) or granulocyte-macrophage colony-stimulating factor (GM-CSF) in degranulation assays were shown in FIG. 5. The number of CD4 cells positively stained for interleukin-2 (IL-2) or interleukin-4 (IL-4) in degranulation assays were shown in FIG. 6."}, "CART cells": {"system": "CART cells", "assay": "In vitro CART19 exhaustion assay", "protocol": "(§1) FIG. 11 contains an exemplary timeline for an in vitro CART19 exhaustion assay in the presence of TP0903. T cells were incubated with target cells at a 1:5 ratio (experiments were done using JEKO cells as well as primary B cells). The low E:T ratio was used to induce a state of dysfunction of CART cells. Cells were cultured in the presence of increasing doses of TP0903. On day 5 of co-culture, cells were harvested, and expression of inhibitory receptors was analyzed. Co-culture in the presence of TP0903 reduces expression of PD1, TIM3, and LAG3 inhibitory receptors.\nas §1, with “T” for “FIG. 11 contains an exemplary timeline for an in vitro CART19 exhaustion assay in the presence of TP0903. T”, “reduced” for “reduces”, “receptors. TP0903 reduced exhaustion receptors on CART cells (FIG. 12).” for “receptors.”"}, "[1]": {"system": "p-LCK and GATA-3 in naïve T cells", "assay": "Western blot of p-LCK and GATA-3 in naïve T cells", "protocol": "FIG. 21A-E. TP0903 modulates naïve T cells function upon stimulation of PMA/Ionomycin in vitro. A. Naïve T cell proliferation assay in the presence of TP0903. Naïve T cells were stimulated with 5 ng/ml of PMA and 0.1 μg/ml of Ionomycin in the absence or in the increasing dose of TP0903 (10-65 nM) for 3 days. […] B. At the end of the expansion on day 3, T cells were stained with inhibitory receptors. […] C. Naïve T cell degranulation assay and cytokine production in the presence of TP0903. Naïve T cells were stimulated with 50 ng/ml of PMA and 1 μg/ml of Ionomycin for 4 hours in the presence of increasing doses of TP0903 (10-65 nM). […] D. Western blot analysis of p-LCK and GATA-3 inhibition by TP0903 in naïve T cells. Naïve T cells were stimulated with 5 ng/ml of PMA and 0.1 ug/ml of Ionomycin in the absence (DMSO) or in the increasing dose of TP0903 (10-65 nM) for 24 hours. […] was used as loading control. E. TP0903 specifically reduces regulatory T cells (Treg). Effector T cells (Teff) were isolated by negative selection using RoboSep™ Human T Cell Isolation Kit (Stemcell Technologies). Tregs were isolated by negative selection using the human CD4^+CD127^lowCD25^+ Treg isolation kit (Stemcell Technologies). Teff and Treg were stimulated with anti-CD3/CD28 beads and 400 U/ml of IL-2. At day 5, total T cells were evaluated via CountBright quantification."}, "[2]": {"system": "p-LCK, p38MAPK, GATA-3, T-bet in CART19 cells", "assay": "Western blot of signaling molecules in stimulated CART19 cells"}, "[3]": {"details": "T cells:targets 1:5, JEKO or primary B cells, 4 hours"}, "[4]": {"details": "PMA/Ionomycin, 24 hours, highest dose (65 nM)"}, "[5]": {"details": "stimulated CART cells (FIG. 18)"}}, "note": "Entries after “also recorded” stand apart in the source; their conditions may differ."}
{"smiles": "CN1CCN(Cc2ccc(Nc3ncc(Cl)c(Nc4ccccc4S(=O)(=O)N(C)C)n3)cc2)CC1", "note": "[TP0903]", "values": [{"measurement": "T cell specific degranulation or intracellular cytokines (CD107a, GM-CSF)", "setting": "CART19; CD4 and CD8 cells", "value": "did not inhibit"}, {"measurement": "activation of CART19 cells (CD107a degranulation, intracytoplasmic IL-2, IFN-γ, GM-CSF)", "setting": "CART19; JeKo-1, 4 hours, TP0903 10-65 nM, presence or absence of TP0903", "value": "significant activation"}, {"measurement": "secretion of IL-4", "setting": "CART19; JeKo-1, 4 hours, increasing dose of TP0903 (10-65 nM)", "value": "downregulated"}, {"measurement": "CART cell functions", "setting": "CART19; [3]", "value": "did not impair"}, {"measurement": "Th2 cytokines (intracellular staining)", "setting": "CART19; [3]", "value": "lowered"}, {"measurement": "expression of PD1, TIM3, and LAG3 inhibitory (exhaustion) receptors on CART cells", "setting": "CART cells; 1:5 E:T, JEKO or primary B cells, increasing doses of TP0903, day 5", "value": "reduces; also recorded: downregulated in a dose depended manner"}, {"measurement": "inhibitory receptors on activated CART cells", "setting": "CART cells; CART19 with Jeko, Example 2", "value": "significantly downregulated"}, {"measurement": "GATA-3", "setting": "[1]; [4]", "value": "modest inhibition"}, {"measurement": "phosphorylation of LCK", "setting": "[1]; [4]", "value": "modest inhibition"}, {"measurement": "LCK", "setting": "[1]; T cell lysates, low dose TP0903", "value": "inhibition"}, {"measurement": "GATA-3", "setting": "[2]; [5]", "value": "reduction"}, {"measurement": "P38", "setting": "[2]; [5]", "value": "reduction"}, {"measurement": "P-JNK", "setting": "[2]; [5]", "value": "reduction"}, {"measurement": "T-bet", "setting": "[2]; [5]", "value": "reduction"}, {"measurement": "phospho LCK", "setting": "[2]; stimulated CART cells, dose dependent (FIG. 18)", "value": "increase"}]}
